Data on 13 molecules can be found in patent publication EP4640686A1, “DEGRADER FOR DEGRADING BRD PROTEIN AND PHARMACEUTICAL COMPOSITION CONTAINING SAME” (Innocure Therapeutics, Inc., priority 2022, dated 2024).

Read-outs that look alike come from different tables or passages of the source.

What all share (type): cell-based
Assay [1] concerns the target T1, BRD4 (Homo sapiens, UniProt O60885). The experiment in a line: BRD4 protein degradation by western blotting in RPMI2650 cells (24 h treatment). Also noted: To evaluate the resolution of PROTAC for BRD4 expressed in cells; endogenous in cells; host or cells: RPMI2650. The procedure, abridged: (§1)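 Cells seeded at 5 X 10^5 cells/well and exposed to serially diluted compound for 24 hours. Western blot bands were quantified by densitometry, normalized to β-actin or GAPDH and expressed as % of 0.1% DMSO vehicle. DC50 is the concentration giving 50% loss of protein.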
A general note: Immunoblotting shows a protein as a band on a membrane.

In assay [2] the target is T1, BRD4. As to the kind of experiment: BRD4 protein degradation by western blotting in MDA-MB-231 cells (24 h treatment). On the set-up: To evaluate the resolution of PROTAC for BRD4 expressed in cells; endogenous in cells; host or cells: MDA-MB-231.
The next assay has as its system RPMI2650. As to the kind of experiment: Cancer cell antiproliferative activity / cell viability in RPMI2650 cells (72 h treatment). As to conditions: Homo sapiens. The procedure, abridged: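 RPMI2650 human cells were grown under specific culture conditions and seeded at 5,000 cells/well in 96-well plates. Test compounds, dissolved in DMSO as 10 mM or 50 mM stock solutions and serially diluted, were applied at various concentrations for 72 hours. IC50, the concentration giving 50% cytostasis, was averaged over three independent measurements.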

The next assay deals with MDA-MB-231. As to the kind of experiment: Cancer cell antiproliferative activity / cell viability in MDA-MB-231 cells (72 h treatment). As to conditions: Homo sapiens, read-out: BRD4 (IC50). The protocol: (§2) The human breast cancer cell line [MDA-MB-231] was cultured in RPMI medium with the addition of 10% fetal bovine serum, penicillin [100U/ml], and streptomycin [[…]]. The synthesized compounds were prepared with a 10 mM or 50 mM raw material solution dissolved in DMSO [dimethyl sulfoxide], and were diluted sequentially and treated. [RPMI2650] and [SNU2972] were cultivated under specific conditions.
(§3) To observe cell growth inhibition, cells were dispensed in a concentration of 5,000 cells/well in a 96-well plate, and samples prepared at various concentrations were treated for 72 hours. The IC50 value (the concentration of the compound achieving 50% cytostaticism) is the average value of the results of three independent measurements.

The subject of another assay is SNU2972. The experiment in a line: Cancer cell antiproliferative activity / cell viability in SNU2972 cells (72 h treatment). As to conditions: read-out: BRD4 (IC50). The protocol: as §2, §3
A further assay addresses T2, BRD4-NUT (Homo sapiens, UniProt O60885+Q86Y26).
T2 construct: endogenous in cells; host or cells: RPMI2650
The experiment in a line: BRD4-NUT protein degradation by western blotting in RPMI2650 cells (24 h treatment). The procedure, abridged: as §1

[3] abbreviates: read-out: BR04 (DC50), RPMI2650.
Setting [4] is: RPMI-2650, RPMI2650, read-out: BRD4 (IC50).
Where [5] appears, read: read-out: BRD4-NUT (DC50), RPMI2650.
[6] abbreviates: RPM12650, read-out: BRD4 (DC50).
Setting [7] is: RPMI-2650, RPM12650, read-out: Cell Viatility (IC50).
[8] abbreviates: RPM12650, read-out: BRD4-NUT (DC50).

Broadly, the DC50 is the midpoint of the concentration-degradation curve. Broadly, the IC50 is the concentration that inhibits the measured activity by half. As for `Cc1sc2c(c1C)C(c1ccc(Cl)cc1)=N[C@@H](CC(=O)N1CCC(CN3CCN(c4cc5c(C)nn(C6CCC(=O)NC6=O)c(=O)c5cc4F)CC3)CC1)c1nnc(C)n1-2` (stereo partly drawn) [ICT-0000953, 3-(6-(4-((1-(2-((S)-4-(4-chlorophenyl)-2,3,9-trimethyl-6H-thieno[3,2-f][1,2,4]triazolo[4,3-a][1,4]diazepine-6-il)acetyl)piperidine-4-il)methyl)piperazine-1-il)-7-fluoro-4-methyl-1-oxopthalazine-2(1H)-yl)piperidine-2,6-dione], the DC50 on BRD4 [1] (setting [3]), at BRD4 [2] and at BRD4-NUT (setting [5]) was under 100 nM each time. Moreover, the IC50 in the assay with RPMI2650 (setting [4]), in the assay on MDA-MB-231 and in the assay with SNU2972 was under 100 nM throughout.
Take `Cc1sc2c(c1C)C(c1ccc(Cl)cc1)=N[C@@H](CC(=O)N1CCC(CN3CCN(c4cc5cnn(C6CCC(=O)NC6=O)c(=O)c5cc4F)CC3)CC1)c1nnc(C)n1-2` (stereo partly drawn) [ICT-0000971, 3-(6-(4-((1-(2-((S)-4-(4-chlorophenyl)-2,3,9-trimethyl-6H-thieno[3,2-f][1,2,4]triazolo[4,3-a][1,4]diazepine-6-day)acetyl)piperidine-4-il)methyl)piperazine-1-yl)7-fluoro-1-oxopthalazine-2(1H)-yl)piperidine-2,6-dione]: the DC50 at BRD4 [1] (setting [3]), at BRD4 [2] and at BRD4-NUT (setting [5]) was under 100 nM in each case. In addition, the IC50 with RPMI2650 (setting [4]), in the assay with MDA-MB-231 and in the assay on SNU2972 was under 100 nM each time.
As to `Cc1sc2c(c1C)C(c1ccc(Cl)cc1)=N[C@@H](CC(=O)N1CCC(CN3CCN(c4cc5c(=O)n(C6CCC(=O)NC6=O)ncc5cc4F)CC3)CC1)c1nnc(C)n1-2` (stereo partly drawn) [ICT-0000972, 3-(7-(4-((1-(2-((S)-4-(4-chlorophenyl)-2,3,9-trimethyl-6H-thieno[3,2-f][1,2,4]triazolo[4,3-a][1,4]diazepine-6-day)acetyl)piperidine-4-il)methyl)piperazine-1-yl)-6-fluoro-1-oxopthalazine-2(1H)-yl)piperidine-2,6-dione], the DC50 on BRD4 [1] (setting [3]), at BRD4 [2] and on BRD4-NUT (setting [5]) was under 100 nM in each case. The IC50 with RPMI2650 (setting [4]) was 100 to 1000 nM; in the assay with MDA-MB-231, under 100 nM; in the assay with SNU2972 it was under 100 nM.
Take `Cc1sc2c(c1C)C(c1ccc(Cl)cc1)=N[C@@H](CC(=O)N1CC(N3CCN(c4ccc5c(=O)n(C6CCC(=O)NC6=O)ncc5c4)CC3)C1)c1nnc(C)n1-2` (stereo partly drawn) [ICT-0000973, 3-(6-(4-(1-(2-((S)-4-(4-chlorophenyl)-2,3,9-trimethyl-6H-thieno[3,2-f][1,2,4]triazolo[4,3-a][1,4]diazepine-6-day)acetyl)azetidine-3-il)piperazine-1-yl)-1-oxopthalazine-2(1H)-yl)piperidine-2,6-dione]: the DC50 at BRD4 [1] (setting [3]), on BRD4 [2] and at BRD4-NUT (setting [5]) was under 100 nM each time. In addition, the IC50 in the assay on RPMI2650 (setting [4]) was 100 to 1000 nM; with MDA-MB-231, under 100 nM; in the assay on SNU2972, 100 to 1000 nM.
As to `Cc1sc2c(c1C)C(c1ccc(Cl)cc1)=N[C@@H](CC(=O)N1CC(N3CCN(c4ccc5c(=O)n(C6CCC(=O)NC6=O)nc(C)c5c4)CC3)C1)c1nnc(C)n1-2` (stereo partly drawn) [ICT-0000974, 3-(6-(4-(1-(2-((S)-4-(4-chlorophenyl)-2,3,9-trimethyl-6H-thieno[3,2-f][1,2,4]triazolo[4,3-a][1,4]diazepine-6-yl)acetyl)azetidine-3-il)piperazine-1-yl)-4-methyl-1-oxopthalazine-2(1H)-yl)piperidine-2,6-dione], the DC50 at BRD4 [1] (setting [3]), at BRD4 [2] and at BRD4-NUT (setting [5]) was under 100 nM each time. The IC50 with RPMI2650 (setting [4]), in the assay on MDA-MB-231 and with SNU2972 was under 100 nM throughout.
For the molecule `Cc1sc2c(c1C)C(c1ccc(Cl)cc1)=N[C@@H](CC(=O)Nc1ccc(N3CCN(c4ccc5c(=O)n(C6CCC(=O)NC6=O)nc(C)c5c4)CC3)cc1)c1nnc(C)n1-2` (stereo partly drawn) [ICT-0001410, 2-((S)-4-(4-chlorophenyl)-2,3,9-trimethyl-6H-thieno[3,2-f][1,2,4]triazolo[4,3-a][1,4]diazepine-6-yl)-N-(4-(4-(2-(2,6-dioxopiperidin-3-yl)-4-methyl-1-oxo-1,2-dihydroptalazine-6-yl)piperazine-1-yl)phenyl)acetamide], the DC50 on BRD4 [1] (setting [3]), at BRD4 [2] and on BRD4-NUT (setting [5]) was under 100 nM throughout. The IC50 in the assay on RPMI2650 (setting [4]) and in the assay with MDA-MB-231 was under 100 nM in each case.
Regarding `Cc1sc2c(c1C)C(c1ccc(Cl)cc1)=N[C@@H](CC(=O)Nc1ccc(CN3CCN(c4ccc5c(=O)n(C6CCC(=O)NC6=O)nc(C)c5c4)CC3)cc1)c1nnc(C)n1-2` (stereo partly drawn) [ICT-0001423, 2-[(9S)-7-(4-chlorophenyl)-4,5,13-trimethyl-3-thia-1,8,11,12-tetraazatricyclo[8.3.0.0^2,^6]trideca-2(6),4,7,10,12-pentaene-9-yl]-N-[4-({4-[2-(2,6-dioxopiperidin-3-yl)-4-methyl-1-oxo-1,2-dihydroptalazine-6-yl]piperazine-1-yl}methyl)phenyl]acetamide], the DC50 on BRD4 [1] (setting [3]), at BRD4 [2] and on BRD4-NUT (setting [5]) was under 100 nM each time. The IC50 in the assay with RPMI2650 (setting [4]) and in the assay on MDA-MB-231 was under 100 nM throughout.
Regarding `CC[C@@H]1c2nnc(C)n2-c2cnc(Nc3ccc(C(=O)NC4CCN(C(=O)C5CCN(c6ccc7c(C)nn(C8CCC(=O)NC8=O)c(=O)c7c6)CC5)CC4)cc3OC)nc2N1CC1CCCCC1` (stereo partly shown) [ICT-0001592], the DC50 on BRD4 [1] (setting [6]) and on BRD4-NUT (setting [8]) was under 100 nM in each case. Further, in the assay with RPMI2650 (setting [7]), the concentration for half-maximal inhibition (IC50) was under 100 nM.
For the molecule `CC[C@@H]1c2nnc(C)n2-c2cnc(Nc3ccc(C(=O)N4CCN(CCNc5ccc6c(=O)n(C7CCC(=O)NC7=O)nc(C)c6c5)CC4)cc3OC)nc2N1CC1CCCCC1` (stereo partly drawn) [ICT-0001599, 3-(6-((2-(4-(4-(((R)-5-(cyclohexylmethyl)-4-ethyl-1-methyl-4,5-dihydro-[1,2,4]triazolo[4,3-f]pteridine-7-yl)amino)3-methoxybenzoyl)piperazine-1-yl)ethyl)amino)4-methyl-1-oxopthalazine-2(1H)-yl)piperidine-2,6-dione], the DC50 at BRD4 [1] (setting [6]) and at BRD4-NUT (setting [8]) was under 100 nM throughout. Besides, the IC50 in the assay with RPMI2650 (setting [7]) was over 1000 nM.
For the molecule `CC[C@@H]1c2nnc(C)n2-c2cnc(Nc3ccc(C(=O)N4CCN(CCNc5ccc6c(C)nn(C7CCC(=O)NC7=O)c(=O)c6c5)CC4)cc3OC)nc2N1CC1CCCCC1` (stereo partly drawn) [ICT-0001600, 3-(7-((2-(4-(4-(((R)-5-(cyclohexylmethyl)-4-ethyl-1-methyl-4,5-dihydro-[1,2,4]triazolo[4,3-f]pteridine-7-yl)amino)3-methoxybenzoyl)piperazine-1-yl)ethyl)amino)4-methyl-1-oxopthalazine-2(1H)-yl)piperidine-2,6-dione], the DC50 at BRD4 [1] (setting [6]) and at BRD4-NUT (setting [8]) was under 100 nM throughout. Moreover, the IC50 with RPMI2650 (setting [7]) is under 100 nM.
Turning to `CC[C@@H]1c2nnc(C)n2-c2cnc(Nc3ccc(C(=O)N4CCN(CCNc5cccc6cnn(C7CCC(=O)NC7=O)c(=O)c56)CC4)cc3OC)nc2N1CC1CCCCC1` (stereo partly drawn) [ICT-0001601, 3-(8-((2-(4-(4-(((R)-5-(cyclohexylmethyl)-4-ethyl-1-methyl-4,5-dihydro-[1,2,4]triazolo[4,3-f]pteridine-7-yl)amino)3-methoxybenzoyl)piperazine-1-il)ethyl)amino)1-oxopthalazine-2(1H)-yl)piperidine-2,6-dione], the DC50 on BRD4 [1] (setting [6]) and on BRD4-NUT (setting [8]) was under 100 nM in each case. Besides, the IC50 in the assay with RPMI2650 (setting [7]) was under 100 nM.
Turning to `CC[C@@H]1c2nnc(C)n2-c2cnc(Nc3ccc(C(=O)N4CCN(CCNc5cccc6c(=O)n(C7CCC(=O)NC7=O)ncc56)CC4)cc3OC)nc2N1CC1CCCCC1` (stereo partly shown) [ICT-0001602], the DC50 was under 100 nM on BRD4 [1] (setting [6]) and 100 to 1000 nM at BRD4-NUT (setting [8]). Also, the IC50 with RPMI2650 (setting [7]) was over 1000 nM.
Taken in the same sequence, the figures for `CC[C@@H]1c2nnc(C)n2-c2cnc(Nc3ccc(C(=O)N4CCN(CCNc5ccc6c(=O)n(C7CCC(=O)NC7=O)ncc6c5)CC4)cc3OC)nc2N1CC1CCCCC1` (stereo partly drawn) [ICT-0001603, 3-(6-((2-(4-(4-(((R)-5-(cyclohexylmethyl)-4-ethyl-1-methyl-4,5-dihydro-[1,2,4]triazolo[4,3-f]pteridine-7-yl)amino)3-methoxybenzoyl)piperazine-1-yl)ethyl)amino)1-oxopthalazine-2(1H)-yl)piperidine-2,6-dione] were under 100 nM, under 100 nM and over 1000 nM.
